Data: ChEMBL document CHEMBL3862010, “N-Arylsulfonyl-α-amino carboxamides are potent and selective inhibitors of the chemokine receptor CCR10 that show efficacy in the murine DNFB model of contact hypersensitivity” (Bioorg Med Chem Lett, 2016)
Each block holds one compound with its values, some of them ahead of it.

How the values were obtained:
[1] = target: T1, C-C chemokine receptor type 10 (Homo sapiens, UniProt P46092); experiment: Antagonist activity at human CCR10 expressed in CHOK1 cells coexpressing aequorin/Galphaq assessed as inhibition of human CCL27-dependent calcium flux in presence of coelenterazine H by chemiluminescence assay; assay type: functional, cell-based, CHO-K1
T1 sequence (P46092 whole entry): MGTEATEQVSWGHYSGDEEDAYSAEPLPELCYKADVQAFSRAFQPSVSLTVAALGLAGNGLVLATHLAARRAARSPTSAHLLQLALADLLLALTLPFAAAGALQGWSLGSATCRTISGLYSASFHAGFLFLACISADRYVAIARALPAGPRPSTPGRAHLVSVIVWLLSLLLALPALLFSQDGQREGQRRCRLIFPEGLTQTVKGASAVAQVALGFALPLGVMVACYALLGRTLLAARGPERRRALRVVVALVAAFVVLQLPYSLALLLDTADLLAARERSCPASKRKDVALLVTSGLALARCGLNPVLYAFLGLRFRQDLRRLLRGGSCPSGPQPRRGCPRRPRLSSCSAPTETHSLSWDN

[2] = target: T2, C-C chemokine receptor type 10 (Mus musculus, UniProt Q9JL21); experiment: Antagonist activity at mouse CCR10 expressed in CHOK1 cells coexpressing aequorin/Galphaq assessed as inhibition of CCL27-dependent calcium flux in presence of coelenterazine H by chemiluminescence assay; assay type: functional, cell-based, CHO-K1
T2 sequence (Q9JL21 whole entry): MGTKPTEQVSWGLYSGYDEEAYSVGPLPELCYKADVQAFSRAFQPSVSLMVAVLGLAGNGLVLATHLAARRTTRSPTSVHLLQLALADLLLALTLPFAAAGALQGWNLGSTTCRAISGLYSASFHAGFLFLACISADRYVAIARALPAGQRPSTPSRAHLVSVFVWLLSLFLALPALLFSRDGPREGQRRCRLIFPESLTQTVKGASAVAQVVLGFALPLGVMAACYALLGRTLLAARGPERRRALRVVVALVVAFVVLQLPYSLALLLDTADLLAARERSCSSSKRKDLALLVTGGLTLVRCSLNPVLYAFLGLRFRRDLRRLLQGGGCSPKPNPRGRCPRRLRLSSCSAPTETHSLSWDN

[3] = target: T1, C-C chemokine receptor type 10; experiment: Antagonist activity at human CCR10 expressed in CHOK1 cells coexpressing aequorin/Galphaq assessed as inhibition of human CCL28-dependent calcium flux by chemiluminescence assay; assay type: functional, cell-based, CHO-K1
[4] = target: T1, C-C chemokine receptor type 10; experiment: Antagonist activity at human CCR10 expressed in CHOK1 cells coexpressing aequorin/Galphaq assessed as inhibition of human CCL28-dependent calcium flux by FLIPR assay; assay type: functional, cell-based, CHO-K1
[5] = target: T1, C-C chemokine receptor type 10; experiment: Antagonist activity at human CCR10 expressed in CHOK1 cells coexpressing aequorin/Galphaq assessed as inhibition of CCL27-dependent calcium flux in presence of coelenterazine H by FLIPR assay; assay type: functional, cell-based, CHO-K1
[6] = target: 5-hydroxytryptamine receptor 2A (Rattus norvegicus) (UniProt P14842); experiment: Binding affinity to rat 5-HT2 receptor at 10 uM relative to control
[7] = target: C-C chemokine receptor type 4 (Homo sapiens) (UniProt P51679); experiment: Antagonist activity at human CCR4 assessed as inhibition of CCL22-induced calcium flux at 10 uM relative to control; assay type: functional
[8] = target: Histamine H2 receptor (Homo sapiens) (UniProt P25021); experiment: Binding affinity to human histamine H2 receptor at 10 uM relative to control
[9] = target: Adrenergic receptor beta (Rattus norvegicus) (UniProt P18090+P10608+P26255); experiment: Binding affinity to rat adrenergic beta receptor at 10 uM relative to control
[10] = target: D(3) dopamine receptor (Homo sapiens) (UniProt P35462); experiment: Binding affinity to human dopamine D3 receptor at 10 uM relative to control
Homo sapiens [11] = organism: Homo sapiens; experiment: Binding affinity to human IL-8 receptor at 10 uM relative to control
Homo sapiens [12] = organism: Homo sapiens; experiment: Binding affinity to human nicotinic acetylcholine receptor at 10 uM relative to control
[13] = target: Histamine H1 receptor (Homo sapiens) (UniProt P35367); experiment: Binding affinity to human histamine H1 receptor at 10 uM relative to control
[14] = target: Type-1 angiotensin II receptor (Homo sapiens) (UniProt P30556); experiment: Binding affinity to human AT1 receptor at 10 uM relative to control
[15] = target: D(2) dopamine receptor (Homo sapiens) (UniProt P14416); experiment: Binding affinity to human dopamine D2L receptor at 10 uM relative to control
[16] = target: Adrenergic receptor alpha-1 (Rattus norvegicus) (UniProt P15823+P23944+P43140); experiment: Binding affinity to rat adrenergic alpha1 receptor at 10 uM relative to control
[17] = target: B2 bradykinin receptor (Homo sapiens) (UniProt P30411); experiment: Binding affinity to human B2 bradykinin receptor at 10 uM relative to control
[18] = target: D(1A) dopamine receptor (Homo sapiens) (UniProt P21728); experiment: Binding affinity to human dopamine D1 receptor at 10 uM relative to control
Rattus norvegicus [19] = organism: Rattus norvegicus; experiment: Binding affinity to rat GABA-B receptor at 10 uM relative to control
Mus musculus = experiment: Antiinflammatory activity in Balb/C mouse model of contact hypersensitivity assessed as inhibition of DNFB-stimulated ear swelling administered ip bid at 0 and 8 hrs measured 24 hrs post DNFB stimulation; assay type: functional, organism-based
Rattus norvegicus [20] = organism: Rattus norvegicus; experiment: Binding affinity to rat 5-HT1 receptor at 10 uM relative to control
Rattus norvegicus [21] = organism: Rattus norvegicus; experiment: Binding affinity to rat GABA-A receptor at 10 uM relative to control
[22] = target: 5-hydroxytryptamine receptor 3A (Homo sapiens) (UniProt P46098); experiment: Binding affinity to human 5-HT3 receptor at 10 uM relative to control
[23] = target: Adrenergic receptor alpha-2 (Rattus norvegicus) (UniProt P22086+P19328+P22909); experiment: Binding affinity to rat adrenergic alpha2 receptor at 10 uM relative to control
Rattus norvegicus [24] = organism: Rattus norvegicus; experiment: Binding affinity to rat muscarinic acetylcholine receptor at 10 uM relative to control
Rattus norvegicus [25] = organism: Rattus norvegicus; experiment: Binding affinity to rat glutamate receptor at 10 uM relative to control
[26] = Plasma concentration in Balb/C mouse at 100 mg/kg, ip bid measured after 1 hr; assay type: ADME, organism-based; conditions: in vivo
[27] = Plasma concentration in Balb/C mouse at 30 mg/kg, ip bid measured after 1 hr; assay type: ADME, organism-based; conditions: in vivo, 1 h
[28] = Protein binding in Balb/C mouse plasma at 100 mg/kg, ip bid; assay type: ADME, organism-based; conditions: in vivo

Chain of D(2) dopamine receptor (Homo sapiens) (P14416 whole entry): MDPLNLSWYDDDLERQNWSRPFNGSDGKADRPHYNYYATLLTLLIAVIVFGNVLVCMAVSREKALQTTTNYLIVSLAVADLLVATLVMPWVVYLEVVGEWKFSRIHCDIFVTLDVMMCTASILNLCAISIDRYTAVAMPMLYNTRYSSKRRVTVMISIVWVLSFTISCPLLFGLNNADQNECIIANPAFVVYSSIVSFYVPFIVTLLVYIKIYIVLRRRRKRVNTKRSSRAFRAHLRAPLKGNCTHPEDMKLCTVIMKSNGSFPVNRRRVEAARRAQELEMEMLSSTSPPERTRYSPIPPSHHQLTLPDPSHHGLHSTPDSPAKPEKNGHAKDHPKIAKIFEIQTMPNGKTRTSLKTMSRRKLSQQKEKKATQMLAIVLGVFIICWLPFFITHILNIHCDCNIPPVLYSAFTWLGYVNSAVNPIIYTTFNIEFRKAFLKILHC
Chain of Type-1 angiotensin II receptor (Homo sapiens) (P30556 whole entry): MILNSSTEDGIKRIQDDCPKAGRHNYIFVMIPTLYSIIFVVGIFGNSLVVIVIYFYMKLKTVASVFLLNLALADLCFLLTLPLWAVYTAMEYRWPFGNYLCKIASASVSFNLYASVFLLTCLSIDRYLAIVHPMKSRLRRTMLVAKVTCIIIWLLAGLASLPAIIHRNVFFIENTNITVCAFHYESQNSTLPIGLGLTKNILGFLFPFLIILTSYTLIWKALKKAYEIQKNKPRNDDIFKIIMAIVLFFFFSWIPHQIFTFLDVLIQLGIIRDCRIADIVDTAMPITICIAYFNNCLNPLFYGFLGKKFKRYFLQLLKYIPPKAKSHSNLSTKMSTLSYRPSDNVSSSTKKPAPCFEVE
Chain of 5-hydroxytryptamine receptor 2A (Rattus norvegicus) (P14842 whole entry): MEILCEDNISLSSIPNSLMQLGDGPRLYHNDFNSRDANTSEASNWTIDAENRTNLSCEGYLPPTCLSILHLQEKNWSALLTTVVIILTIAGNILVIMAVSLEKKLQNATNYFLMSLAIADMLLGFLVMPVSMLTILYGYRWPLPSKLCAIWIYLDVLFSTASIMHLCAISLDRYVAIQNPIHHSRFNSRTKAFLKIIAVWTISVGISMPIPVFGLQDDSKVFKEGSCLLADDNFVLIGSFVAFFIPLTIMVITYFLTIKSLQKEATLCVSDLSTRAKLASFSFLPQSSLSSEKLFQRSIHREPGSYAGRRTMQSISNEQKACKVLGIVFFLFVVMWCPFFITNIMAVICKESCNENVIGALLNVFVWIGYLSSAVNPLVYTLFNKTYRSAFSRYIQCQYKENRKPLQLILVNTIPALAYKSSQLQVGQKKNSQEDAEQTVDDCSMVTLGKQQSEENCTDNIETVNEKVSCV
Chain of D(1A) dopamine receptor (Homo sapiens) (P21728 whole entry): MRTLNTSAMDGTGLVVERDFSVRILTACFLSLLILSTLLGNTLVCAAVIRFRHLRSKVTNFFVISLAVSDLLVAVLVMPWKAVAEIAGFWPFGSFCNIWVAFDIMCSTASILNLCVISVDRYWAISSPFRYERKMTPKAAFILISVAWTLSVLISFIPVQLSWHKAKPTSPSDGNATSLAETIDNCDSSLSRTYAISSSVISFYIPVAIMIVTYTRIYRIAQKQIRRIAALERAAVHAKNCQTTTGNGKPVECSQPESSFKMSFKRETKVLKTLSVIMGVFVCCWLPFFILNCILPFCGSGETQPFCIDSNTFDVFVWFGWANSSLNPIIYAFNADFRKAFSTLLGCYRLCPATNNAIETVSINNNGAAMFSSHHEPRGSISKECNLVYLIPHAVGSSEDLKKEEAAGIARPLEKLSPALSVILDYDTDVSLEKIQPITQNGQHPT
Chain of 5-hydroxytryptamine receptor 3A (Homo sapiens) (P46098 whole entry): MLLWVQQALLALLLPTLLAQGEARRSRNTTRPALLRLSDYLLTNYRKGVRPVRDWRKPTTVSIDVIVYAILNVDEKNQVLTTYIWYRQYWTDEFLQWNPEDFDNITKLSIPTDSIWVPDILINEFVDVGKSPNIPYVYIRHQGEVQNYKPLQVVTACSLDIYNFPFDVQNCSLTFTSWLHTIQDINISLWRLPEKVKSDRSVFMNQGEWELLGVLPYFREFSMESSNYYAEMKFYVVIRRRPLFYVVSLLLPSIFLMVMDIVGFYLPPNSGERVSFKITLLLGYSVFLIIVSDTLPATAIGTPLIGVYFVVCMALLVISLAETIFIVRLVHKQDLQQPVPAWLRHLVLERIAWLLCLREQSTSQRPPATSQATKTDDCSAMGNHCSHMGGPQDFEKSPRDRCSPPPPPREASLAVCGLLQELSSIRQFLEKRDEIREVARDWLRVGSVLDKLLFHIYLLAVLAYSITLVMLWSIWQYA
Chain of D(3) dopamine receptor (Homo sapiens) (P35462 whole entry): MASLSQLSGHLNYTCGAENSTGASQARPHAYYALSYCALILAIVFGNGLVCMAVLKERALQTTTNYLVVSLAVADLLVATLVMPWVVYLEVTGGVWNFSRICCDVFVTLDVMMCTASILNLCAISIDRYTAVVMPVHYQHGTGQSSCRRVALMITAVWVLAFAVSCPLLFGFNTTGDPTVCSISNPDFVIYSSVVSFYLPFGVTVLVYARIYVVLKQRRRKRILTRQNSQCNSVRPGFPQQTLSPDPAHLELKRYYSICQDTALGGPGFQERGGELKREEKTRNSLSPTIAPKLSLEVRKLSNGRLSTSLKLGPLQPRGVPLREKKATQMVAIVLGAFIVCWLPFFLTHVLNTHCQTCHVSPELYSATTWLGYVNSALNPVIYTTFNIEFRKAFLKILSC
Chain of C-C chemokine receptor type 4 (Homo sapiens) (P51679 whole entry): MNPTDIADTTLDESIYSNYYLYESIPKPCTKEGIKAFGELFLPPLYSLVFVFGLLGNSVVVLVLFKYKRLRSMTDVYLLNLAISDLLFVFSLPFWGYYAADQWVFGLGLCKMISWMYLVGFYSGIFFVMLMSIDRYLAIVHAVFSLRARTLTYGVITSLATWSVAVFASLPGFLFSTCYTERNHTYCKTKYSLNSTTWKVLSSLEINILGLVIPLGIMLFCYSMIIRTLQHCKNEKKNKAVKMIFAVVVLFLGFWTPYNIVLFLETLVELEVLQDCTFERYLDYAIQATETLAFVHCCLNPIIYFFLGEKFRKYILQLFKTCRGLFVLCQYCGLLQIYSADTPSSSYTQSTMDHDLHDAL
Chain of Histamine H1 receptor (Homo sapiens) (P35367 whole entry): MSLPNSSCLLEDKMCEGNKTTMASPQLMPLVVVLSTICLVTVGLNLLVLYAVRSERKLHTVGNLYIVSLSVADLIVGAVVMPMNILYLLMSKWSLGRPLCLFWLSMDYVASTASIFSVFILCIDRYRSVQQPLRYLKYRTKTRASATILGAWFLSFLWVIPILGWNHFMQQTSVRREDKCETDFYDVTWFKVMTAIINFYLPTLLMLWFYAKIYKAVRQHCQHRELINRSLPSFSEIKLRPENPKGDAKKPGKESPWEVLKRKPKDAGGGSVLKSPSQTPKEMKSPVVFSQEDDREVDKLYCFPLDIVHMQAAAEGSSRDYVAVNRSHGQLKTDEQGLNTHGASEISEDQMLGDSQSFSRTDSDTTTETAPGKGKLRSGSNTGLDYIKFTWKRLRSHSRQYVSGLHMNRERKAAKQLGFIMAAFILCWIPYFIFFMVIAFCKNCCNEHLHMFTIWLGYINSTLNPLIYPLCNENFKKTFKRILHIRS
Chain of B2 bradykinin receptor (Homo sapiens) (P30411 whole entry): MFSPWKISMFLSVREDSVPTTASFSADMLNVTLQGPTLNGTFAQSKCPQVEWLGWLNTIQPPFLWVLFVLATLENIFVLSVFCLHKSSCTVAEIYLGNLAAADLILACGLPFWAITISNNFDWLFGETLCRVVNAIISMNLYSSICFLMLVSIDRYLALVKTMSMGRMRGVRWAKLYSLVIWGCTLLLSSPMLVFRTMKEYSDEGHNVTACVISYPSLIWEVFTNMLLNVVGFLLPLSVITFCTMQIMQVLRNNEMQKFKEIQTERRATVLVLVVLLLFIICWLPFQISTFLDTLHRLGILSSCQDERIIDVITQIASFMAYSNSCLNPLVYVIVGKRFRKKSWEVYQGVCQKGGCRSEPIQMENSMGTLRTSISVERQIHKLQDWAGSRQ
Chain of Histamine H2 receptor (Homo sapiens) (P25021 whole entry): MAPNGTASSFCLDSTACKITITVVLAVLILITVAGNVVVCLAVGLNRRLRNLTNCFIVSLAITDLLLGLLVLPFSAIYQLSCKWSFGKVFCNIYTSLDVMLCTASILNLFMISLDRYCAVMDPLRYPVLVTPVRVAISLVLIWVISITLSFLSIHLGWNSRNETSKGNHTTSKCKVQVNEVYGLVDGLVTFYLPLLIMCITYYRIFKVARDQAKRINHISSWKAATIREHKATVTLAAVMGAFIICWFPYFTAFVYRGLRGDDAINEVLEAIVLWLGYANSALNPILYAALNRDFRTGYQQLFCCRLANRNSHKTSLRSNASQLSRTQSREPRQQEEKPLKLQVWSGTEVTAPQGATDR

SMILES: CC1CCN(C(=O)C(CCn2cccc2C#N)NS(=O)(=O)c2ccc3cc[nH]c3c2)CC1 (configuration not stated)
IC50 ([1]; read-out: pIC50 (converted)): 7.94 nM
IC50 [2]: 1000 nM

SMILES: CN(C)C(=O)C(CCn1cccc1C#N)NS(=O)(=O)c1cc(Cl)c(N)c(Cl)c1 (configuration not stated)
IC50 ([1]; read-out: pIC50 (converted)): > 10000 nM

SMILES: N#Cc1cccn1CCC(NS(=O)(=O)c1cc(Cl)c(N)c(Cl)c1)C(=O)N1CCCC1 (configuration not stated)
IC50 ([1]; read-out: pIC50 (converted)): > 10000 nM

SMILES: CC1CCN(C(=O)C(CCn2cccc2C#N)NS(=O)(=O)c2cccc3ccccc23)CC1 (configuration not stated)
IC50 ([1]; read-out: pIC50 (converted)): 50.1 nM

SMILES: N#Cc1cccn1CCC(NS(=O)(=O)c1cccc2[nH]ccc12)C(=O)N1CCC(O)CC1 (configuration not stated)
IC50 ([1]; read-out: pIC50 (converted)): 126 nM

SMILES: CC1CCN(C(=O)C(CCn2cccc2C#N)NS(=O)(=O)c2cccc3c2ccn3C)CC1 (configuration not stated)
IC50 ([1]; read-out: pIC50 (converted)): 126 nM
IC50 [2]: 6310 nM

SMILES: CC1CCN(C(=O)C(CCc2ccccc2Cl)NS(=O)(=O)c2cc(Cl)c(N)c(Cl)c2)CC1 (configuration not stated)
IC50 ([1]; read-out: pIC50 (converted)): 126 nM

SMILES: N#Cc1cccn1CCC(NS(=O)(=O)c1cc(Cl)c(N)c(Cl)c1)C(=O)N1CCCCCC1 (configuration not stated)
IC50 ([1]; read-out: pIC50 (converted)): 251 nM

SMILES: CC1CCN(C(=O)C(CCn2cccc2C#N)NS(=O)(=O)c2cccc3[nH]ccc23)CC1 (stereo in doubt; form 1)
Activity [6]: < 10%
inhibition [7]: < 10%
Activity [8]: < 10%
Activity [9]: < 10%
Activity [10]: < 10%
Activity (Homo sapiens [11]): < 10%
Activity (Homo sapiens [12]): < 10%
Activity [13]: < 10%
Activity [14]: < 10%
Activity [15]: < 10%
Activity [16]: < 10%
Activity [17]: < 10%
Activity [18]: < 10%
Activity (Rattus norvegicus [19]): < 10%
inhibition (Mus musculus): Dose-dependent effect
Activity (Rattus norvegicus [20]): 19%
Activity (Rattus norvegicus [21]): < 10%
Activity [22]: < 10%
Activity [23]: < 10%
Activity (Rattus norvegicus [24]): 22%
Activity (Rattus norvegicus [25]): < 10%

SMILES: N#Cc1cccn1CCC(NS(=O)(=O)c1cc(Cl)c(N)c(Cl)c1)C(=O)N1CCCCC1 (configuration not stated)
IC50 ([1]; read-out: pIC50 (converted)): 158 nM

SMILES: CC1CCN(C(=O)C(CCn2cccc2C#N)NS(=O)(=O)c2ccc3[nH]ccc3c2)CC1 (configuration not stated)
IC50 ([1]; read-out: pIC50 (converted)): 200 nM

SMILES: CC1CCCCN1C(=O)C(CCn1cccc1C#N)NS(=O)(=O)c1cc(Cl)c(N)c(Cl)c1 (configuration not stated)
IC50 ([1]; read-out: pIC50 (converted)): 794 nM

SMILES: CC1CCN(C(=O)C(CCn2cccc2C#N)NS(=O)(=O)c2cccc3[nH]ccc23)CC1 (stereo in doubt; form 2)
concentration [26]: 18 µM
IC50 ([1]; read-out: pIC50 (converted)): 3160 nM
concentration [27]: 3.2 µM
PPB [28]: 99%
IC50 [2]: 15800 nM

SMILES: N#Cc1cccn1CCC(NS(=O)(=O)c1cccc2[nH]ccc12)C(=O)N1CCCCC1 (configuration not stated)
IC50 ([1]; read-out: pIC50 (converted)): 10 nM

Next, values leading:

IC50 ([1]; read-out: pIC50 (converted)): 15800 nM
SMILES: CC1CCN(C(=O)[C@H](CCn2cccc2C#N)NS(=O)(=O)c2cc(Cl)c(N)c(Cl)c2)CC1

IC50 ([1]; read-out: pIC50 (converted)): 501 nM
SMILES: CC1CCN(C(=O)C(CCn2ccnc2C#N)NS(=O)(=O)c2cc(Cl)c(N)c(Cl)c2)CC1 (configuration not stated)

IC50 ([1]; read-out: pIC50 (converted)): 501 nM
IC50 [2]: > 20000 nM
SMILES: CC1CCN(C(=O)C(CCn2ccnc2Cl)NS(=O)(=O)c2cc(Cl)c(N)c(Cl)c2)CC1 (configuration not stated)

IC50 [3]: 794 nM
IC50 [4]: 794 nM
IC50 ([1]; read-out: IC50): 690 nM
IC50 [5]: 251 nM
IC50 [2]: > 20000 nM
SMILES: CC1CCN(C(=O)C(CCn2ccnc2[N+](=O)[O-])NS(=O)(=O)c2cc(Cl)c(N)c(Cl)c2)CC1 (configuration not stated)

IC50 ([1]; read-out: pIC50 (converted)): > 20000 nM
SMILES: CC1CCN(C(=O)C(CCn2cncn2)NS(=O)(=O)c2cc(Cl)c(N)c(Cl)c2)CC1 (configuration not stated)

IC50 ([1]; read-out: pIC50 (converted)): 1260 nM
SMILES: CC1CCN(C(=O)C(CCn2cccc2)NS(=O)(=O)c2cc(Cl)c(N)c(Cl)c2)CC1 (configuration not stated)

IC50 ([1]; read-out: pIC50 (converted)): 251 nM
SMILES: CC1CCN(C(=O)C(CCn2nccc2Cl)NS(=O)(=O)c2cc(Cl)c(N)c(Cl)c2)CC1 (configuration not stated)
